Measured values as given in patent US9334268B2, “4-amino-imidazoquinoline compounds” (Hoffmann-La Roche Inc., priority 2014, dated 2016).
Counter-ions that a name gives are not always drawn.

Legend:
[1] = molecular target: human TLR8 (Homo sapiens (Human), UniProt Q9NR97); assay: HEK-Blue human TLR8 SEAP reporter assay; type: cell-based; conditions: HEK-Blue human TLR8 cells, NF-κB-regulated SEAP reporter, stimulation for 24 hr
Experimental: (§1) For TLR8 and TLR7 activity testing, HEK-Blue human TLR8 or TLR7 cells, respectively, (Invivogen, San Diego, Calif., USA) transfected with a SEAP reporter (secreted embryonic alkaline phosphatase) construct were used, in which the reporter expression is regulated by the NF-κB promoter upon stimulation for 24 hr. The reporter activity was determined using Quanti Blue kit (Invivogen, San Diego, Calif., USA) at a wavelength of 640 nm.
(§2) EC50 values were determined using Activity Base analysis (ID Business Solution, Limited).

[2] = molecular target: human TLR7 (Homo sapiens (Human), UniProt Q9NYK1); assay: HEK-Blue human TLR7 SEAP reporter assay; type: cell-based; conditions: for EC50: HEK-Blue human TLR7 cells, NF-κB-regulated SEAP reporter, stimulation for 24 hr
Sequence of human TLR7 (Q9NYK1 27-1049): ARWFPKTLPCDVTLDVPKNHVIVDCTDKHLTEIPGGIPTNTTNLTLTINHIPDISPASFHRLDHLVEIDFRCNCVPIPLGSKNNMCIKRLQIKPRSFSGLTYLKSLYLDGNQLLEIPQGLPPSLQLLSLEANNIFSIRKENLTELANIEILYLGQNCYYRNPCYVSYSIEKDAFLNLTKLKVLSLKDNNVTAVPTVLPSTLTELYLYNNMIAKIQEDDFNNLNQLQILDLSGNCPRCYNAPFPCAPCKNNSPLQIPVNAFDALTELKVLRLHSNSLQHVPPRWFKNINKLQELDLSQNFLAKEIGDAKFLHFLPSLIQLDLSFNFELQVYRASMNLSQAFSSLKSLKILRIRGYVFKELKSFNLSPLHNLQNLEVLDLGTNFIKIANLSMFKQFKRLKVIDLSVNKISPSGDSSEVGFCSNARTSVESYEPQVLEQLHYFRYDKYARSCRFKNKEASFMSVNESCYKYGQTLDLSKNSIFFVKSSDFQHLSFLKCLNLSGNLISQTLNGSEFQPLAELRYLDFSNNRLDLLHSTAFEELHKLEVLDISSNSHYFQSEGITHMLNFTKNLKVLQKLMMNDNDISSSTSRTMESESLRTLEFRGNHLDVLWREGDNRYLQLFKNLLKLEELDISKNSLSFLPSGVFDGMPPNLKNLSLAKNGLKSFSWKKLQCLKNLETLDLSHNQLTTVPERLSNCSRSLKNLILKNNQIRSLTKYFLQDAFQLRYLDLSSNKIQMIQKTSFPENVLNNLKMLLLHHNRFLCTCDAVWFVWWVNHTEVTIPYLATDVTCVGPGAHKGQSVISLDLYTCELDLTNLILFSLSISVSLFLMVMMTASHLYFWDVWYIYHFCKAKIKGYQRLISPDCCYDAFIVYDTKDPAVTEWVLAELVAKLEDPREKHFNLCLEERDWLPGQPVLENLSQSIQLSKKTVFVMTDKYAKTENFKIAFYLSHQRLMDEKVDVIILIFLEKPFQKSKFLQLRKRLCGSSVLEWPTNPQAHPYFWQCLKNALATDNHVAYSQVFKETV
Experimental: as §1, §2

Sequence of human TLR8 (Q9NR97 27-1041): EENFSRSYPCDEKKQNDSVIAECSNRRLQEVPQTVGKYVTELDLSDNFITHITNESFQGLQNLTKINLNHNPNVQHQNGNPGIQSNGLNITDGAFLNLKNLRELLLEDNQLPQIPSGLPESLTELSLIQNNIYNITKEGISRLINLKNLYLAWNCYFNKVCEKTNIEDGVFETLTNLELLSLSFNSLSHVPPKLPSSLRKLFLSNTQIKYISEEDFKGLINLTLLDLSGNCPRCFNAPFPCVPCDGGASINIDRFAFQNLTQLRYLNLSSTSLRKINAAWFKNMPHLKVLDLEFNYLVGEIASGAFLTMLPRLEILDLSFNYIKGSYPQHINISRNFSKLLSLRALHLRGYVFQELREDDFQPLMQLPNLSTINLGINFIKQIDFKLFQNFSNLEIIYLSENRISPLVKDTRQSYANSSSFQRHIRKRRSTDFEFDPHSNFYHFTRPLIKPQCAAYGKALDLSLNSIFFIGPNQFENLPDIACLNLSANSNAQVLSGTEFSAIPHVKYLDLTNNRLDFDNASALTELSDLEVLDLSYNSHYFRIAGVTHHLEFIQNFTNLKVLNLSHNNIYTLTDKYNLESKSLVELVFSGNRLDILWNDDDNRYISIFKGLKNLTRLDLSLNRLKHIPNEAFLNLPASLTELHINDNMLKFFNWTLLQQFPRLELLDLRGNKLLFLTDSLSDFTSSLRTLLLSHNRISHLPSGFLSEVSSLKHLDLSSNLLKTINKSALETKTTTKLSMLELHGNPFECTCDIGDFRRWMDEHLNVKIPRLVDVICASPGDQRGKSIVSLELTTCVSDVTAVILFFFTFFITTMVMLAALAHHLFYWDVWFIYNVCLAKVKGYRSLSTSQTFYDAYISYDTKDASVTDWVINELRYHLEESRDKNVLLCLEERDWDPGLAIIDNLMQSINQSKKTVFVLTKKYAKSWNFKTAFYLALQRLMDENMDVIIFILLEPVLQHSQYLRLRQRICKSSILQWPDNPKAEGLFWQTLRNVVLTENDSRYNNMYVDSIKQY

Row | EC50 [1] [nM] | EC50 [2] [nM] | cellular potency at TLR7 ([2]; statement in words, compared with resiquimod) | SMILES
1 | 49000 | > 100000 | do not show the required activity | CCOCc1nc2c(N)nc3ccccc3c2n1CCOCCN [1-(2-(2-Aminoethoxy)ethyl)-2-(ethoxymethyl)-1H-imidazo[4,5-c]quinolin-4-amine, reference compound]
2 | 580 | 60 |  | CCOCc1nc2c(N)nc3ccccc3c2n1CC(C)(C)OCCN [Example 1, 1-(2-(2-Aminoethoxy)-2-methylpropyl)-2-(ethoxymethyl)-1H-imidazo[4,5-c]quinolin-4-amine]
3 | 35000 | 223 |  | CCOCc1nc2c(N)nc3ccccc3c2n1CC(C)(C)OCCNC(=O)c1cccnc1 [Example 3, N-(2-(1-(4-Amino-2-(ethoxymethyl)-1H-imidazo[4,5-c]quinolin-1-yl)-2-methylpropan-2-yloxy)ethyl)nicotinamide]
4 |  | 27 |  | CCOCc1nc2c(N)nc3ccccc3c2n1CC(C)(C)OCCNC(C)=O [Example 4, N-(2-(1-(4-Amino-2-(ethoxymethyl)-1H-imidazo[4,5-c]quinolin-1-yl)-2-methylpropan-2-yloxy)ethyl)acetamide]
5 | 10500 | 900 |  | CCOCc1nc2c(N)nc3ccccc3c2n1CC(C)(C)OCCNCCCO [Example 5, 3-(2-(1-(4-Amino-2-(ethoxymethyl)-1H-imidazo[4,5-c]quinolin-1-yl)-2-methylpropan-2-yloxy)ethylamino)propan-1-ol]
6 | 2700 | 152 |  | CCCCCc1nc2c(N)nc3ccccc3c2n1CC(C)(C)OCCN [Example 10, 1-(2-(2-Aminoethoxy)-2-methylpropyl)-2-pentyl-1H-imidazo[4,5-c]quinolin-4-amine]

Continued, compound first:

Row | SMILES | EC50 [1] [nM] | EC50 [2] [nM] | cellular potency at TLR7 ([2]; statement in words, compared with resiquimod)
7 | CCOCc1nc2c(N)nc3ccccc3c2n1CC(C)(C)OC(=O)CN [Example 2, 1-(4-Amino-2-(ethoxymethyl)-1H-imidazo[4,5-c]quinolin-1-yl)-2-methylpropan-2-yl 2-aminoacetate] | 80 | 50 | 
8 | CCOCc1nc2c(N)nc3ccccc3c2n1CC(C)(C)OCCNC(=O)CCCCCNC(=O)OC(C)(C)C [Example 6, tert-Butyl 6-(2-(1-(4-amino-2-(ethoxymethyl)-1H-imidazo[4,5-c]quinolin-1-yl)-2-methylpropan-2-yloxy)ethylamino)-6-oxohexylcarbamate] | 2900 | 195 | 
9 | CCOCc1nc2c(N)nc3cc(/C=C/C(=O)OCC)ccc3c2n1CC(C)(C)OCCN [Example 7, (E)-Ethyl 3-(4-amino-1-(2-(2-aminoethoxy)-2-methylpropyl)-2-(ethoxymethyl)-1H-imidazo[4,5-c]quinolin-7-yl)acrylate] | 1080 | 139 | 
10 | CCOCc1nc2c(N)nc3cc(CCC(=O)OCC)ccc3c2n1CC(C)(C)OCCN [Example 8, Ethyl 3-(4-amino-1-(2-(2-aminoethoxy)-2-methylpropyl)-2-(ethoxymethyl)-1H-imidazo[4,5-c]quinolin-7-yl)propanoate hydrochloride] | 256 | 134 | 
11 | CCOCc1nc2c(N)nc3cc(CCC(=O)OCC)ccc3c2n1CC(C)(C)OC(=O)CN [Example 9, Ethyl 3-(4-amino-1-(2-(2-aminoacetoxy)-2-methylpropyl)-2-(ethoxymethyl)-1H-imidazo[4,5-c]quinolin-7-yl)propanoate] | 54 | 55 | 
12 | CCOCc1nc2c(N)nc3cc(Br)ccc3c2n1CC(C)(C)OCCN [Example 11, 1-(2-(2-Aminoethoxy)-2-methylpropyl)-7-bromo-2-(ethoxymethyl)-1H-imidazo[4,5-c]quinolin-4-amine hydrochloride] | 2900 | 130 | 
